# Assay results from patent US20080167332A1, “Novel Compounds 243” (priority 2006, published 2008).
# Structures can show the parent of a compound that is named as a salt.
# Target: T1, human ether-a-go-go-related-gene (hERG)-encoded potassium channel (Homo sapiens, UniProt Q12809)
# T1 construct: expressed in transfected cells; host or cells: HEK 293 cell membranes
# Assay: hERG-encoded potassium channel binding assay
# Conditions: HEK 293 cell membranes expressing the IKR channel, radioligand binding; read-out: hERG binding concentration
# Procedure: This assay, which is described in full detail in example 2, WO2005037052, determines the ability of a test compound to bind to the human ether-a-go-go-related-gene (hERG)-encoded potassium channel. The assay comprises the following steps: a) incubation of HEK 293 cell membranes expressing the IKR channel in the presence of radioligand 3,7-bis[2-(4-nitro[3,5-^3H]phenyl)ethyl]-3,7-diazabicyclo[3.3.1]nonane, in the presence or absence of a test compound; b) quantitation of specifically bound labelled compound in the presence or absence of a test compound; c) calculation of the inhibition of labelled compound binding by the test compound. Similar protocols to determine affinity for the human ether-a-go-go-related-gene (hERG)-encoded potassium channel have been described by Finlayson, K. et al. [Eur. J. Pharmacol. 2001, 412, 203 and Eur. J. Pharmacol. 2001, 430, 147].
# T1 sequence (Q12809 whole entry): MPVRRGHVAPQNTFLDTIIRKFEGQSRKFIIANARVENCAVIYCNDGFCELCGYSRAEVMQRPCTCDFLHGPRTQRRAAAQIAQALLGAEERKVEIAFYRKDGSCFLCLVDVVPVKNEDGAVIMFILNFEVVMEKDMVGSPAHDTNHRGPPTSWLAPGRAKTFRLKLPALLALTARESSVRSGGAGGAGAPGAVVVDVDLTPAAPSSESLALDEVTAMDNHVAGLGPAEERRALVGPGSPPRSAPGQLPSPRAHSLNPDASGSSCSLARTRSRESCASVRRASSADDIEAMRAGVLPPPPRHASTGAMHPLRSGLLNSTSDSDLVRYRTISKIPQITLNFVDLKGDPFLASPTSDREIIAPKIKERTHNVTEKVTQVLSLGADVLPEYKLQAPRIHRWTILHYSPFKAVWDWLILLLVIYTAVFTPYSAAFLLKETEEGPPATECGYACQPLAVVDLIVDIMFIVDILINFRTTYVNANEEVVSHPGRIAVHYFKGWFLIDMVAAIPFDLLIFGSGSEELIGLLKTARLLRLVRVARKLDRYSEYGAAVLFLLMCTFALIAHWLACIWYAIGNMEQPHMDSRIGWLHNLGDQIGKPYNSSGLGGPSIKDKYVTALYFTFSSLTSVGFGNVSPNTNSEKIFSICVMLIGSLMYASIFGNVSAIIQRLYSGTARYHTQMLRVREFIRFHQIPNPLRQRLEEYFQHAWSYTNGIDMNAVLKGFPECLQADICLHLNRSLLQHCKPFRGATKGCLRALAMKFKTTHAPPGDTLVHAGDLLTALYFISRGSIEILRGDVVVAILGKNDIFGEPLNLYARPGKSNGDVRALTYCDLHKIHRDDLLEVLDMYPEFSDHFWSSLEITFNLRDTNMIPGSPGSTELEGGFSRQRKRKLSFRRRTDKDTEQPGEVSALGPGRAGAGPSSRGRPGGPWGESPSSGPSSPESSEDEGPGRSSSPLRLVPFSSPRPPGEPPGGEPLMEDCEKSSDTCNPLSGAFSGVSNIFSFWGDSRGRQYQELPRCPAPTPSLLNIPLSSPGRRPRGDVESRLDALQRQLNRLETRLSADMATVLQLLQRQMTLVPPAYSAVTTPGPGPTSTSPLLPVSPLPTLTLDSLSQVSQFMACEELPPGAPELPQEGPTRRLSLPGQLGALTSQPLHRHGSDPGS
row,Compound,IC50
1,"CC(=O)Nc1cc(Cl)c(OCC(=O)O)cc1OC[C@@H](O)CN1CCC2(CC1)Cc1cc(Cl)ccc1O2 [Example 1, (4-(acetylamino)-2-chloro-5-{[(2S)-3-(5-chloro-1′H,3H-spiro[1-benzofuran-2,4′-piperidin]-1′-yl)-2-hydroxypropyl]oxy}phenoxy)acetic acid]",> 30000 nM

# Target: T2, recombinant human CCR1 (Homo sapiens, UniProt P32246)
# T2 construct: expressed in transfected cells; membranes
# T2 sequence (P32246 1-355): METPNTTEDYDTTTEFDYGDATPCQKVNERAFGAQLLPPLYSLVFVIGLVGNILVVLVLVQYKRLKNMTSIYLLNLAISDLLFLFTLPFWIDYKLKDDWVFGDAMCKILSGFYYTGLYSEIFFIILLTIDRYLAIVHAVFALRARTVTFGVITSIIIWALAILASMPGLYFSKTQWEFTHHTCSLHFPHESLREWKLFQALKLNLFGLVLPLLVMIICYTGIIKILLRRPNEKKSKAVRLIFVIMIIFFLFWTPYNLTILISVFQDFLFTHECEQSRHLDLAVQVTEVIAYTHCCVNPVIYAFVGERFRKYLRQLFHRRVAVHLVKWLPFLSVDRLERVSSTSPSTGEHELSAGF
# Assay: Human CCR1 binding assay ([125I] MIP-1α displacement)
# Conditions: displacement of 33 pM [125I] MIP-1α, HEK-CCR1 membranes; read-out: Result from assay: IC50
# Procedure: HEK293 cells, from ECACC, stably expressing recombinant human CCR1 (HEK-CCR1) were used to prepare cell membranes containing CCR1. The membranes were stored at −70° C. The concentration of membranes of each batch was adjusted to 10% specific binding of 33 pM [^125I] MIP-1α.
# 100 μL of HEK-CCR1 membranes diluted in assay buffer pH 7.4 ((137 mM NaCl (Merck, Cat No 1.06404), 5.7 mM Glucose (Sigma, Cat No G5400), 2.7 mM KCl (Sigma, Cat No P-9333), 0.36 mM NaH2PO4×H2O (Merck, Cat No 1.06346), 10 mM HEPES (Sigma, Cat No H3375), 0.1% (w/v) Gelatine (Sigma, Cat No G2625)) with the addition of 17500 units/L Bacitracin (Sigma, Cat No B1025) were added to each well of the 96 well filter plate (0.45 μm opaque Millipore cat no MHVB N4550). 12 μL of compound in assay buffer, containing 10% DMSO, was added to give final compound concentrations of 1×10^−5.5−I×10^−9.5 M. 12 μL cold human recombinant MIP-1α (270-LD-050, R&D Systems, Oxford, UK), 10 nM final concentration in assay buffer supplemented with 10% DMSO, was included in certain wells (without compound) as non-specific binding control (NSB). 12 μL assay buffer with 10% DMSO was added to certain wells (without compound) to detect maximal binding (B0).
# 12 μL [^125I] MIP-1α, diluted in assay buffer to a final concentration in the wells of 33 pM, was added to all wells. The plates with lid were then incubated for 1.5 h at room temperature. After incubation the wells were emptied by vacuum filtration (MultiScreen Resist Vacuum Manifold system, Millipore) and washed once with 200 μL assay buffer. After the wash, all wells received an addition of […] of scintillation fluid (OptiPhase “Supermix”, Wallac Oy, Turko, Finland). Bound [^125I] MIP-1α was measured using a Wallac Trilux 1450 MicroBeta counter. Window settings: Low 5-High 1020, 1-minute counting/well.
# The following equation was used to calculate percent displacement.
# Percent displacement=1−((cpm test−cpm NSB)/(cpm B0−cpm NSB)) where:
# cpm test=average cpm in wells with membranes and compound and [^125I] MIP-1α; NSB=average cpm in the wells with membranes and MIP-1α and [^125I] MIP-1α (non-specific binding); B0=average cpm in wells with membranes and assay buffer and [^125I] MIP-1α (maximum binding).
# The molar concentration of compound producing 50% displacement (IC50) was derived using the Excel-based program XLfit (version 2.0.9) to fit data to a 4-parameter logistics function.
row,IC50,Compound
1,2.42 nM,"CNC(=O)c1cc(Cl)c(OC(C)(C)C(=O)O)cc1OCC(O)CN1CCC2(CC1)Cc1cc(Cl)ccc1O2 (racemic) [Example 21, 2-{2-Chloro-5-{3-(5-chloro-1′H 3H-spiro[1-benzofuran-2,4′-piperidin]-1′-yl)-2-hydroxypropyl]oxy}-4-dimethylamino)carbonyl]-phenoxy}-2-methyl-propanoic acid trifluoracetate]"
2,10 nM,"CC(=O)Nc1ccc(OCC(=O)O)cc1OC[C@@H](O)CN1CCC2(CC1)Cc1cc(Cl)ccc1O2 [Example 2, (4-(acetylamino)-3-{[(2S)-3-(5-chloro-1′H,3H-spiro[1-benzofuran-2,4′-piperidin]-1′-yl)-2-hydroxypropyl]oxy}phenoxy)acetic acid]"
3,20.2 nM,CNC(=O)c1cc(Cl)c(OCC(=O)O)cc1OC[C@@H](O)CN1CCC2(CC1)Cc1cc(Cl)ccc1O2 [Example 4]
4,1.06 nM,"CNC(=O)c1cc(Cl)c(OC(C)(C)C(=O)O)cc1OC[C@@H](O)CN1CCC2(CC1)Cc1cc(Cl)ccc1O2 [Example 5, 2-[2-Chloro-5-{[(2S)-3-(5-chloro-1′H,3H-spiro[l-benzofuran-2,4′-piperidin]-1′-yl)-2-hydroxypropyl]oxy}-4-[(methylamino)carbonyl]-phenoxy}-2-methylpropanoic acid TFA]"
5,11.4 nM,"CN(C)C(=O)c1cc(Cl)c(OCC(=O)O)cc1OC[C@@H](O)CN1CCC2(CC1)Cc1cc(Cl)ccc1O2 [Example 18, {2-Chloro-5-{[(2S)-3-(5-chloro-1′H,3H-spirol[1-benzofuran-2,4′-piperidin]-1′-yl)-2-hydroxypropyl]oxy}-4-[(dimethylamino)carbonyl]phenoxy}acetic acid]"
6,1.6 nM,"CN(C)C(=O)c1cc(Cl)c(OC(C)(C)C(=O)O)cc1OC[C@@H](O)CN1CCC2(CC1)Cc1cc(Cl)ccc1O2 [Example 19, 2-{2-Chloro-5-{[(2S)-3-(5-chloro-1′H, 3H-spiro[l-benzofuran-2,4′-piperidin]-1′-yl)-2-hydroxypropyl]oxy}-4-[(dimethylamino)carbonyl]-phenoxy}-2-methylpropanoic acid]"
7,2.02 nM,"O=C(O)COc1cc(OC[C@@H](O)CN2CCC3(CC2)Cc2cc(Cl)ccc2O3)c(C(=O)N2CC[C@H](O)C2)cc1Cl [Example 20, (2-Chloro-5-{[(2S)-3-(5-chloro-1′H,3H-spiro[1-benzofuran-2,4′-piperidin]-1′-yl)-2-hydroxypropyl]oxy}-4-{[(3S)-3-hydroxypyrrolidin-1-yl]carbonyl}phenoxy)acetic acid]"
8,71.7 nM,"CNC(=O)c1cc(Cl)c(OC(C)(C)C(=O)O)cc1OC[C@@H](O)CN1CCC2(CC1)Cc1cc(Cl)cc(C(C)(C)C)c1O2 [Example 22, 2-[5-{[(2S)-3-(7-tert-Butyl-5-chloro-1′H, 3H-spiro[1-benzofuran-2,4′-piperidin]-1′-yl)-2-hydroxypropyl]oxy}-2-chloro-4-(methylcarbamoyl)phenoxy]-2-methylpropanoic acid]"

row,Compound,IC50
1,"CNC(=O)c1cc(Cl)c(OC(C)(C)C(=O)O)cc1OC[C@H](O)CN1CCC2(CC1)Cc1cc(Cl)ccc1O2 [Example 6, 2-{2-Chloro-5-{[(2R)-3-(5-chloro-1′H,3H-spiro[1-benzofuran-2,4′-piperidin]-1′-yl)-2-hydroxypropyl]oxy}-4-[(methylamino)carbonyl]phenoxy}-2-methylpropanoic acid]",11 nM

# Same assay, conditions: displacement of 33 pM [125I] MIP-1α, HEK-CCR1 membranes; read-out: Result from assay: pIC50 (converted)
row,IC50,Compound
1,0.562 nM,"CC(=O)Nc1cc(Cl)c(OCC(=O)O)cc1OC[C@@H](O)CN1CCC2(CC1)Cc1cc(Cl)ccc1O2 [Example 1, (4-(acetylamino)-2-chloro-5-{[(2S)-3-(5-chloro-1′H,3H-spiro[1-benzofuran-2,4′-piperidin]-1′-yl)-2-hydroxypropyl]oxy}phenoxy)acetic acid]"
2,2.24 nM,"CC(=O)Nc1cc(Cl)c(OCC(=O)O)cc1OC[C@@H](O)CN1CCC2(CC1)Cc1cc(F)ccc1O2 [Example 3, (4-(acetylamino)-2-chloro-5-{[(2S)-3-(5-fluoro-1′H,3H-spiro[1-benzofuran-2,4′-piperidin]-1′-yl)-2-hydroxypropyl]oxy}phenoxy)acetic acid, hydrochloride]"
